{"source": "patent US10463661B2", "about": "“Anthelmintic compounds” (MERIAL INC., priority 2014, dated 2019)", "key": {"Haemonchus contortus": {"tested_on": "Haemonchus contortus", "assay": "Screening method to test activity against Haemonchus contortus L1 larvae (Method A)", "format": "cell-based", "conditions": "96 h, read-out: motility inhibition", "description": "Screening method to test activity of compounds against Haemonchus contortus.\nTwenty L1 Haemonchus contortus larvae were added to wells of a microtitre plate containing a nutrient medium and the test compound in DMSO. An analysis was conducted at 4 days to determine the extent of development of the larvae. Larvae exposed to DMSO alone served as controls. Compounds 3, 6, 12, 15, 43, 44, 45, 46, 47, 48, 49, & 50 gave at least 90% motility inhibition at a test concentration of less than or equal to <1 μM when assessed at the 4 day time point."}, "[1]": {"assay": "Permeability in the CACO-2/TC7 in vitro model (Method C)", "format": "in vitro ADME", "conditions": "human, apical to basolateral, pH gradient 6.5/7.4 and BSA gradient 0.5%/5%, 20 μM compound", "text": "Permeability of Compounds.\nPermeability of a compound across the epithelium cells along the gastrointestinal tract is an important limiting factor for the oral absorption and systemic availability of the compound. An in vitro model utilizing Caco-2/TC7 cells is employed to assess the permeability characteristics of new chemical entities (NCEs). For orally administered compounds, absorption depends on the intrinsic permeability across the intestinal epithelium and whether the active agent is a substrate or inhibitor of uptake or efflux transporters.\nThe permeability studies were performed under standard conditions in the apical to basolateral (A→B) direction with a pH gradient and a BSA gradient (standard apical medium (0.5% BSA at pH 6.5)/standard basal medium (5% BSA at pH 7.4)); conditions that most closely reflect the conditions in the in vivo situation. Samples were deproteinized by the addition of 400 μl acetonitrile to 200 μl sample, followed by a 20-minute centrifugation at 1730 g. […] Analytical conditions: Supernatants recovered following centrifugation were analysed by LC/MS/MS using a reverse phase column and the mobile phases delivered at 0.3 ml/minute in a gradient: water (A) and acetonitrile (B) (each with 0.1% formic acid). […]"}, "[2]": {"tested_on": "ivermectin-resistant strains of Haemonchus contortus", "assay": "Efficacy against ivermectin-resistant endoparasites in sheep (FIG. 2)", "format": "in vivo", "conditions": "0.2 mg/kg orally"}, "[3]": {"tested_on": "ivermectin-resistant strains of Ostertagia circumcincta", "assay": "Efficacy against ivermectin-resistant endoparasites in sheep (FIG. 2)", "format": "in vivo", "conditions": "0.2 mg/kg orally"}, "[4]": {"tested_on": "ivermectin-resistant strains of Trichostrongylus columbriformis", "assay": "Efficacy against ivermectin-resistant endoparasites in sheep (FIG. 2)", "format": "in vivo", "conditions": "0.2 mg/kg orally"}}}
{"molecule": "N#Cc1ccc(N2CC(OCC(=O)N3CCN(c4nc5cc(C(F)(F)F)ccc5s4)CC3)C2)cc1C(F)(F)F", "note": "[Compound 6, 4-[3-[2-oxo-2-[4-[5-(trifluoromethyl)-1,3-benzothiazol-2-yl]piperazin-1-yl]ethoxy]azetidin-1-yl]-2-(trifluoromethyl)benzonitrile]", "values": [{"measurement": "inhibition at 1 µM", "setting": "Haemonchus contortus", "value": "≥ 90", "unit": "%"}]}
{"molecule": "N#Cc1ccc(N2CCC(OCC(=O)N3CCN(c4nc5cc(C(F)(F)F)ccc5s4)CC3)CC2)cc1C(F)(F)F", "note": "[Compound 3, 4-[4-[2-oxo-2-[4-[5-(trifluoromethyl)-1,3-benzothiazol-2-yl]piperazin-1-yl]ethoxy]-1-piperidyl]-2-(trifluoromethyl)benzonitrile]", "values": [{"measurement": "inhibition at 1 µM", "setting": "Haemonchus contortus", "value": "≥ 90", "unit": "%"}, {"measurement": "Papp A→B at 20 μM", "setting": "[1]", "value": 2.8, "unit": "×10⁻⁶ cm/s"}]}
{"molecule": "ivermectin", "values": [{"measurement": "efficacy", "setting": "[2]", "value": "almost completely inactive"}, {"measurement": "efficacy", "setting": "[3]", "value": "less than 30%"}, {"measurement": "efficacy", "setting": "[4]", "value": "less than 60%"}]}
